Results reported in patent publication US7858738B2, “Synthetic human peptides and pharmaceutical compositions comprising them for the treatment of systemic lupus erythematosus” (Yeda Research and Development Co., Ltd., priority 2001, dated 2010).

Legend:
[1] = system: lymph node cells of the BALB/c mice; assay: Cytokine production by 16/6Id-stimulated LNC of treated BALB/c mice (ELISA); format: in vivo; details: BALB/c mice immunized with 16/6Id, hCDR1 50 μg, LNC stimulated with 16/6Id
Description: Induction and treatment of experimental SLE. In order to induce experimental SLE, BALB/c mice were immunized with 1-2 μg of the human mAb 16/6Id and boosted 3 weeks later. For the prevention of experimental SLE, mice were given hCDR1 or hCDR3 (mCDR1 or revmCDR1 as control peptide in Example 12) intravenously (i.v.) or s.c. concomitant with the immunization, and were injected weekly thereafter for 5 weeks. Treatment of an established disease started three and a half months following disease induction with the 16/6Id, when clinical manifestations were already observed. In Example 12, mice received 10 weekly injections (i.v. or s.c.) of mCDR1 or revmCDR1 at a dose of 100 μg/mouse. Prevention and treatment of SLE-like disease in (NZB×NZW)F1 mice with the hCDR1 or mCDR1 peptide. For prevention of SLE, mice at the age of 2 months, before disease manifestations are observed, were injected s.c. with hCDR1 (or mCDR1 in Example 12, 250 μg/mouse) once a week for 10 weeks. To treat an established disease, mice at the age of 5-7 months were injected with hCDR1 (in Example 12, mCDR1 s.c., 250 μg/mouse) once a week for 10 weeks. Proliferative Responses. PBL were isolated from heparinized venous blood by Ficoll-Hypaque (Pharmacia) density-gradient centrifugation. […] Results are expressed as the mean thymidine incorporation in counts per minute (CPM) of triplicate culture±SD, or as stimulation index (S.I.; the ratio of mean CPM at the optimal concentration of the human 16/6Id to the mean CPM in the presence of medium alone). […] TGF-β was determined by an ELISA. […] The substrate solution used was TMB color Reagent (Helix Diagnostics, West Sacramento, Calif.), and enzyme activity was evaluated by using 570- and 630-nm filters. […] Proteinuria was measured semiquantitatively by using Combistix kit (Ames Division, Bayer Diagnostics, Newbury, U.K.). White blood cells (WBC, for leukopenia) were counted after a 10-fold dilution of heparinized blood in distilled water containing 1% acetic acid (vol/vol). […]

SJL-derived LNCs = assay: In vivo inhibition of proliferation of LNC of SJL mice immunized with mCDR3; details: maximum % inhibition; 200 μg s.c. in PBS concomitant with immunization; LNC tested ten days later
Description: To this end, BALB/c and SJL mice were immunized with mCDR1 and mCDR3, respectively. The immunizing murine peptides were injected (10 μg/mouse) in CFA intradermally in the hind footpads. Concomitant with the immunization, groups of BALB/c mice were injected subcutaneously (s.c.) with 200 μg in PBS of hCDR1 and groups of SJL mice were similarly injected with hCDR3. Ten days after the immunization, mice were sacrificed and their lymph nodes were harvested and the cells were tested for their ability to proliferate following triggering with the immunizing peptides. Briefly, LNCs of immunized mice (0.5×10^6/well) were cultured (in triplicates) in the presence of different concentrations (1-20 μg/well) of the murine immunizing peptides in enriched RPMI-1640 medium supplemented with 1% normal mouse serum. Following four days of incubation, ^3H-thymidine was added for additional 16 hours. Cells were then harvested and radioactivity was counted using a β-counter.
The inhibition was calculated based on the proliferation of LNCs of mice that were not treated with the inhibitory peptides hCDR1 and hCDR3. It can be seen that hCDR1 and hCDR3 were capable of inhibiting the proliferative responses to the immunizing murine CDR peptides.

Row | Sequence | production of INF-γ ([1]; FIG. 3A) | secretion of TGF-β ([1]; FIG. 3B) | secretion of IL-10 ([1]; FIG. 3C) | % Inhibition of the proliferation of SJL-derived LNCs to mCDR3 (SJL-derived LNCs) [%]
1 | GYYWSWIRQPPGKGEEWIG (Human) [hCDR1, 19-mer peptide based on the CDR1 of the heavy chain of the human 16/6Id mAb] | down-regulated | up-regulated | up-regulated | 
2 | YYCARGLLRGGWNDVDYYGMDV (Human) [hCDR3, peptide based on the CDR3 of the heavy chain of the human 16/6Id mAb] |  |  |  | 55
